One assay addresses T1, CRP (Rattus norvegicus, UniProt P48199).
T1 construct: from tissue; host or cells: rat serum
T1 sequence (P48199 20-230): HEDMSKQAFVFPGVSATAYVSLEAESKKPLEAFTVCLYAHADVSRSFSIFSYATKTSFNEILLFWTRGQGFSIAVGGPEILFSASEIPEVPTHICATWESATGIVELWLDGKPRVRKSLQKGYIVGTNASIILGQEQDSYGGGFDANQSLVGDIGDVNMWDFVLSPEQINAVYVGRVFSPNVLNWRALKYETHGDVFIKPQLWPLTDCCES
In words: Reduction by PC of K+/R+ phage protection in vitro. It is filed as biochemical. The source says:
PC reduced the protection of K+/R+ phage both in vivo and in vitro, thereby confirming the role of CRP as a K+/R+ protection agent (FIG. 1B and Table 2K, respectively). […] Direct interaction between CRP and K+/R+ phage was shown with the phage immobilized on Affi-Gel 15. Immobilized K+/R+ phage, but not K−/R− phage, bound a substantial amount of serum protein that was eluted from the column by ε-ACA (FIG. 2C). […] The identification of this protein as CRP was confirmed by the Western blot analysis (FIG. 2B, lanes 2 and 3). No binding of CRP to K−/R− phage or a mock column was detected. […] The presence of multiple CRP molecules on surface of K+/R+ phage could provide steric protection against C-mediated inactivation. The role of CRP in protecting K+/R+ phage against C is consistent with the lack of protection for K+/R+ phage in human serum which normally contains little CRP.

Assay [1] is described as follows: Phage survival in rat serum in vitro (plaque forming assay). It is filed as in vitro ADME. The settings on record: protein eluted from Lysine-Sepharose by ε-ACA; data not shown. As to the method: Serum preparation. Rat serum was prepared by clotting blood on ice.

As usually defined, the IC50 is the point on the concentration scale where inhibition reaches its midpoint.

With `C[N+](C)(C)CCOP(=O)(O)O` [PC, phosphorylcholine], the concentration for half-maximal inhibition (IC50) against CRP (K+19/16 clone) and on CRP (R+19/14 clone) was ~50 µM throughout.

B1: Plasminogen: plasminogen bound by Lysine-Sepharose, eluted by ε-aminocaproic acid (protein, UniProt P00747 20-810, looked up)
Plasminogen: EPLDDYVNTQGASLFSVTKKQLGAGSIEECAAKCEEDEEFTCRAFQYHSKEQQCVIMAENRKSSIIIRMRDVVLFEKKVYLSECKTGNGKNYRGTMSKTKNGITCQKWSSTSPHRPRFSPATHPSEGLEENYCRNPDNDPQGPWCYTTDPEKRYDYCDILECEEECMHCSGENYDGKISKTMSGLECQAWDSQSPHAHGYIPSKFPNKNLKKNYCRNPDRELRPWCFTTDPNKRWELCDIPRCTTPPPSSGPTYQCLKGTGENYRGNVAVTVSGHTCQHWSAQTPHTHNRTPENFPCKNLDENYCRNPDGKRAPWCHTTNSQVRWEYCKIPSCDSSPVSTEQLAPTAPPELTPVVQDCYHGDGQSYRGTSSTTTTGKKCQSWSSMTPHRHQKTPENYPNAGLTMNYCRNPDADKGPWCFTTDPSVRWEYCNLKKCSGTEASVVAPPPVVLLPDVETPSEEDCMFGNGKGYRGKRATTVTGTPCQDWAAQEPHRHSIFTPETNPRAGLEKNYCRNPDGDVGGPWCYTTNPRKLYDYCDVPQCAAPSFDCGKPQVEPKKCPGRVVGGCVAHPHSWPWQVSLRTRFGMHFCGGTLISPEWVLTAAHCLEKSPRPSSYKVILGAHQEVNLEPHVQEIEVSRLFLEPTRKDIALLKLSSPAVITDKVIPACLPSPNYVVADRTECFITGWGETQGTFGAGLLKEAQLPVIENKVCNRYEFLNGRVQSTELCAGHLAGGTDSCQGDSGGPLVCFEKDKYILQGVTSWGLGCARPNKPGVYVRVSRFVTWIEGVMRNN
For B1, the “protective effect on phage” value in assay [1] is “no protective effect”.

(Values after US7439051B2, “Process for utilizing epitopes recognized by natural antibodies” (Mirus Bio Corporation, priority 1999, dated 2008).)
